Where two headings read alike, the source gives them in different places.

In data set [1] the test system is Male Wistar rats. As to the kind of experiment: Plasma lipoprotein lipase (LPL) ELISA after subchronic treatment. The format is in vivo, rat. The conditions noted are these: 25 nmol/kg b.w. sc once daily for 3 weeks, vs vehicle, n = 6/group. The source says: After 1 week of acclimatization, animals were allocated into five groups (n = 6/each group). Rats received either vehicle, rat GIP(3-30)NH2, (25 nmol/kg b.w.), human (Pro3)GIP (25 nmol/kg b.w.), human GLP-2(3-33) (25 nmol/kg b.w.), or human GLP-2(11-33) (25 nmol/kg b.w.) sc daily at 6 PM for 3 weeks. […] To study bone resorption, blood was collected from the sublingual vein of rats at −2, −1, 0, 6, 10, 14, 17, 21 days of treatment. The day after the last injection, the rats were euthanized and blood was collected from the vena cava for further biochemical analysis. The liver was excised and samples were snap-frozen in liquid nitrogen and stored at −80°C until assayed. […]
Bone resorption was assessed by measurements of degradation product from C-terminal cross linked telopeptides of type 1 collagen (CTX, RatLaps; IDS Immunodiagnostic Systems GmbH, Frankfurt am Main, Germany). CTX values were expressed as percent of the mean of the baseline values (days−2,−1, 0) of the individual animal. […] Resistin was measured using rat resistin enzyme immunoassay kit (Bertinpharma, Montigny le Bretonneux, France). […] Leptin was measured using rat leptin enzyme immunoassay kit (Mediagnost, Reutlingen, Germany). […] Adiponectin was measured using rat adiponectin ELISA kit (Millipore, St. Charles, Missouri, USA). […] LPL was measured using lipoprotein lipase ELISA kit (Cell Biolabs, San Diego, CA, USA). […]
For orientation: An ELISA detects its analyte on a solid surface through an enzyme-linked reagent.

The test system of data set [2] is Male Wistar rats. As to the kind of experiment: Plasma adipokines (leptin, resistin, adiponectin) after subchronic treatment. The format is in vivo, rat. As to conditions: 25 nmol/kg b.w. sc once daily for 3 weeks, vs vehicle, n = 6/group. An excerpt: (§1) After 1 week of acclimatization, animals were allocated into five groups (n = 6/each group). Rats received either vehicle, rat GIP(3-30)NH2, (25 nmol/kg b.w.), human (Pro3)GIP (25 nmol/kg b.w.), human GLP-2(3-33) (25 nmol/kg b.w.), or human GLP-2(11-33) (25 nmol/kg b.w.) sc daily at 6 PM for 3 weeks. […] To study bone resorption, blood was collected from the sublingual vein of rats at −2, −1, 0, 6, 10, 14, 17, 21 days of treatment. The day after the last injection, the rats were euthanized and blood was collected from the vena cava for further biochemical analysis. The liver was excised and samples were snap-frozen in liquid nitrogen and stored at −80°C until assayed.
(§2) To obtain serum, blood samples were allowed to clot for 30 min and were then centrifuged (10 min at 3,000 × g) and stored at −20°C until analysis. To obtain plasma, blood was collected into chilled tubes containing in final concentrations EDTA 3.9 mmol/l and valine-pyrolidide 0.01 mmol/l (a DPP-4 inhibitor, a gift from Novo Nordisk A/S, Bagsvaerd, Denmark). The samples were centrifuged (10 min at 3,000 × g, 4°C) and plasma was kept at −80°C until analysis.
(§3) Bone resorption was assessed by measurements of degradation product from C-terminal cross linked telopeptides of type 1 collagen (CTX, RatLaps; IDS Immunodiagnostic Systems GmbH, Frankfurt am Main, Germany). CTX values were expressed as percent of the mean of the baseline values (days−2,−1, 0) of the individual animal. The intra- and interassay coefficient of variation (CV's) of the assay is in the range 6–10 and 10–15%, respectively. Resistin was measured using rat resistin enzyme immunoassay kit (Bertinpharma, Montigny le Bretonneux, France). The intra-assay CV is <5%, the inter-assay <10%. Leptin was measured using rat leptin enzyme immunoassay kit (Mediagnost, Reutlingen, Germany). The intra- and inter-assay CV are <5%. Adiponectin was measured using rat adiponectin ELISA kit (Millipore, St. Charles, Missouri, USA). The intra- and inter-assay CV are <2 and <9%, respectively. LPL was measured using lipoprotein lipase ELISA kit (Cell Biolabs, San Diego, CA, USA). The intra- and inter-assay CV are <4 and <8%, respectively. All samples were analyzed in duplicates in the same assay to prevent inter assay variation.

Data set [3] is described as follows: Pharmacokinetic study of GIP(3-30)NH2, plasma radioimmunoassay. The format is in vivo, rat. As for the experimental part:
Samples were taken at 0, 5, 10, 20, 30, and 45 min post-injection of GIP(3-30)NH2. Blood was immediately aliquoted into tubes containing final concentrations of EDTA 3.9 mmol/l. Samples were centrifuged (3,000 × g for 10 min at 4°C) and the plasma stored at −80°C until analysis. GIP(3-30)NH2 concentrations were measured in plasma with an in-house-developed radioimmunoassay ([50]) using a polyclonal antibody (code no. 95236) raised in rabbits against porcine GIP(1-30)NH2. As standard we used rat GIP(3-30)NH2 and the tracer was ^125I-labeled human GIP(3-30NH2).

The test system of data set [4] is Male Wistar rats. As to the kind of experiment: Bone resorption: serum CTX (RatLaps) during subchronic treatment. The data set is classed as in vivo, rat. The conditions noted are these: 25 nmol/kg b.w. sc once daily for 3 weeks, days 0-21, percent of individual baseline, vs vehicle, n = 6/group.
Excerpt: as §1, §2, §3

The subject of data set [5] is Male Wistar rats. As to the kind of experiment: Subchronic treatment in rats: food intake, body weight, body composition (EchoMRI). The data set is classed as in vivo, rat. As to conditions: vs vehicle, n = 6/group; for Food intake: measured twice a week, cage means; for Body weight: monitored weekly. How it is done:
All experiments were in accordance with internationally accepted principles for the care and use of laboratory animals and in compliance with an animal experiment license (2013/15–2934-00833) issued (to JH) by the Danish Committee for Animal Research. Male Wistar rats (Taconic, Denmark) weighing ~200 g at the time of arrival were housed two in each cage at the Panum Institute, Copenhagen, Denmark. They were kept in temperature- (21°C) and humidity-controlled (55%) rooms with light/dark cycles of 12 h with free access to standard rat chow and water.
as §1
Food intake was measured twice a week during the study period at 10 AM by subtracting the leftover weights from the initial weights and calculated as cage means (g/rat). Body weight was monitored weekly at 10 AM. Measures of body lean and fat mass were determined in live, conscious animals using quantitative magnetic resonance spectroscopy (EchoMRI-700TM; Echo MRI).

In data set [6] the test system is Male Wistar rats. The data set is described as follows: Plasma and intrahepatic triglycerides after subchronic treatment. The format is in vivo, rat. As to conditions: 25 nmol/kg b.w. sc once daily for 3 weeks, vs vehicle, n = 6/group; for Intrahepatic triglyceride content: liver lipid extract; for Plasma triglyceride levels: terminal blood.
Excerpt: as §1, §2
Total liver lipids were extracted as previously described ([31]). The extracts were evaporated under vacuum in a rotary evaporator and re-suspended in 1 ml of isopropanol for quantification of triglycerides. Plasma and intrahepatic triglycerides were assessed using triglyceride determination kit (Sigma-Aldrich, Saint Louis, USA). All samples were analyzed in duplicates in the same assay to prevent inter assay variation.

For data set [7] the following is noted: cited from earlier work. An excerpt:
Glucose-dependent insulinotropic peptide (GIP) and glucagon-like peptide-2 (GLP-2) are peptide hormones released from K and L cells of the gastrointestinal tract, respectively ([1], [2]). Both exert their functions through activation of specific G protein-coupled receptors ([3], [4]). The GIP receptor (GIPR) is expressed on different cell type including pancreatic cells, adipocytes ([5]), osteoblasts ([6]), and osteoclasts ([7]). The GLP-2 receptor (GLP-2R) is widely expressed in gastrointestinal tract and central nervous system ([8]–[10]) but fewer are found in the liver, vagal afferents, and ...

A further data set concerns the target rat GIPR. The conditions noted are these: acts as a partial agonist at the rat GIPR, elsewhere ref 22, 25; cited from earlier work.
Where [8] appears, read: 25 nmol/kg b.w. sc once daily for 3 weeks.

Turning to `CC[C@H](C)[C@H](NC(=O)[C@H](CO)NC(=O)[C@H](Cc1ccc(O)cc1)NC(=O)[C@H](CC(=O)O)NC(=O)[C@H](CO)NC(=O)[C@@H](NC(=O)[C@H](Cc1ccccc1)NC(=O)[C@@H](NC(=O)CNC(=O)[C@@H](N)CCC(=O)O)[C@@H](C)O)[C@@H](C)CC)C(=O)N[C@@H](C)C(=O)N[C@@H](CCSC)C(=O)N[C@@H](CC(=O)O)C(=O)N[C@@H](CCCCN)C(=O)N[C@H](C(=O)N[C@@H](CCCNC(=N)N)C(=O)N[C@@H](CCC(N)=O)C(=O)N[C@@H](CCC(N)=O)C(=O)N[C@@H](CC(=O)O)C(=O)N[C@@H](Cc1ccccc1)C(=O)N[C@H](C(=O)N[C@@H](CC(N)=O)C(=O)N[C@@H](Cc1c[nH]c2ccccc12)C(=O)N[C@@H](CC(C)C)C(=O)N[C@@H](CC(C)C)C(=O)N[C@@H](C)C(=O)N[C@@H](CCC(N)=O)C(=O)N[C@@H](CCCCN)C(N)=O)C(C)C)[C@@H](C)CC` [GIP(3-30)NH2], the “Plasma lipoprotein lipase (LPL) levels” value with Male Wistar rats [1] is listed as “significantly enhanced”. For the same compound, in the data set with Male Wistar rats [2] (ELISA), the Plasma adiponectin entry was “no significant effect”. In addition, in the data set on Male Wistar rats [2] (enzyme immunoassay), the Plasma leptin result is on record as “increased” and the Plasma resistin entry is “no significant effect”. In addition, in data set [3] (rat plasma, after administration, in-house radioimmunoassay, data not shown, read-out: Maximum plasma concentration), the Cmax was roughly 17 nM. Besides, the Tmax in data set [3] (rat plasma, in-house radioimmunoassay, data not shown, read-out: Time of maximum plasma concentration after administration (converted)) is 10 min. Besides, in data set [3] (rat plasma, in-house radioimmunoassay, read-out: Half-life after injection), the Half-life is roughly 20 min. Moreover, in data set [3] (rat, concluded from peak level and half-life), the “Duration of exposure for the antagonist” value is listed as no more than 2 h. Besides, the “Serum CTX levels (bone resorption)” value with Male Wistar rats [4] is “did not affect”. In the data set on Male Wistar rats [5] (25 nmol/kg b.w. sc once daily for 3 weeks, NMR spectroscopy (EchoMRI)), the Lean mass entry is on record as “no difference”. Moreover, in the data set with Male Wistar rats [5] (25 nmol/kg b.w. sc once daily for 3 weeks, end of treatment, NMR spectroscopy (EchoMRI)), the Body fat mass entry is “increased”. Further, the Food intake result in the data set with Male Wistar rats [5] (setting [8]) was “no measurable effect”. Further, in the data set with Male Wistar rats [5] (25 nmol/kg b.w. sc once daily), the “Body weight gain, first 2 weeks of treatment” value is on record as “did not show differences”. For the same compound, the “Body weight gain, third week of treatment” value with Male Wistar rats [5] (25 nmol/kg b.w. sc once daily, p < 0.05) was “significantly increased”. In addition, in the data set with Male Wistar rats [6], the Intrahepatic triglyceride content result is given as “failed to change” and the Plasma triglyceride levels entry is given as “increased”.
As for “Glucose-dependent insulinotropic peptide [GIP]”, the Half-life result in data set [7] (humans, DPP-4 mediated degradation) was “about 7 min”.
One may read the Ki as a measure of affinity in units of concentration, obtained from inhibition or displacement. On to (Pro3)GIP, for which the “Plasma lipoprotein lipase (LPL) levels” value in the data set on Male Wistar rats [1] was “did not modify”. In addition, the inhibition constant Ki at rat GIPR is 19 nM. Besides, the “Plasma levels of adipokines” value in the data set with Male Wistar rats [2] (leptin, resistin, adiponectin (Figure 2)) is on record as “did not modify”. In addition, the “Serum CTX levels (bone resorption)” value in the data set on Male Wistar rats [4] is “did not affect”. Also, in the data set on Male Wistar rats [5] (25 nmol/kg b.w. sc once daily for 3 weeks, NMR (EchoMRI)), the “Body composition (total fat and lean mass)” value is “not associated with changes”. Moreover, in the data set with Male Wistar rats [5] (setting [8]), the Food intake result was “not associated with changes” and the Body weight entry was “not associated with changes”. For the same compound, in the data set on Male Wistar rats [6], the Intrahepatic triglyceride content entry was “did not modify” and the Plasma triglyceride levels entry is on record as “did not modify”.
On to “GLP-2(11-33): Synthetic human GLP-2(11-33), GLP-2R antagonist, from Caslo laboratory (NTILDNLAARDFINWLIQTKITD; Glucagon-like peptide 2; UniProt P01275 156-178, looked up, fragment)”, for which, in the data set with Male Wistar rats [4], the “Serum CTX levels (bone resorption)” value is given as “did not change”. For the same compound, in the data set with Male Wistar rats [5] (setting [8]), the Food intake entry is recorded as “did not modify” and the Body weight entry is “did not modify”.
Take glucagon-like peptide-2 [GLP-2]: in data set [7] (human, in vivo), the Half-life result was “about 7 min”.
For the compound “GLP-2(3-33): Synthetic human GLP-2(3-33), GLP-2R antagonist, from Caslo laboratory (DGSFSDEMNTILDNLAARDFINWLIQTKITD; Glucagon-like peptide 2; UniProt P01275 148-178, looked up, fragment)”, the “Serum CTX levels (bone resorption)” value with Male Wistar rats [4] is reported as “did not change”. Further, in the data set on Male Wistar rats [5] (setting [8]), the Food intake entry was “did not modify” and the Body weight result was “did not modify”.

These data come from paper PMC6691063, “Increased Body Weight and Fat Mass After Subchronic GIP Receptor Antagonist, but Not GLP-2 Receptor Antagonist, Administration in Rats” (Frontiers in Endocrinology, 2019).
